From ChEMBL document CHEMBL1201862, “PubChem BioAssay data set” (2004)
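Exposure lasted 48 hours, with cells grown in 96-well plates and compounds tested at five concentrations. At the GI50, growth is halved.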 Calls of active or inactive are those of the source. No stated cut-off is given here; in the data, active = GI50 up to about 1.1 µM and inactive = higher.

Columns and labels:
Assay in all cases: DTP human tumour cell line panel, 48 h
CCRF-CEM = tested on: CCRF-CEM
COLO 205 = tested on: COLO 205
HCC 2998 = tested on: HCC 2998
HT-29 = tested on: HT-29
IGROV-1 = tested on: IGROV-1
KM12 = tested on: KM12
LOX IMVI = tested on: LOX IMVI
MDA-MB-231 = tested on: MDA-MB-231
NCI-H23 = tested on: NCI-H23
NCI/ADR-RES = tested on: NCI/ADR-RES
OVCAR-4 = tested on: OVCAR-4
PC-3 = tested on: PC-3
SF-295 = tested on: SF-295
SK-MEL-2 = tested on: SK-MEL-2
SK-MEL-5 = tested on: SK-MEL-5
SN12C = tested on: SN12C
SNB-75 = tested on: SNB-75
SW-620 = tested on: SW-620
T47D = tested on: T47D
TK-10 = tested on: TK-10

| Compound | GI50 (CCRF-CEM) | GI50 (COLO 205) | GI50 (HCC 2998) | GI50 (HT-29) | GI50 (IGROV-1) | GI50 (KM12) | GI50 (LOX IMVI) | GI50 (MDA-MB-231) | GI50 (NCI-H23) | GI50 (NCI/ADR-RES) | GI50 (OVCAR-4) | GI50 (PC-3) | GI50 (SF-295) | GI50 (SK-MEL-2) | GI50 (SK-MEL-5) | GI50 (SN12C) | GI50 (SNB-75) | GI50 (SW-620) | GI50 (T47D) | GI50 (TK-10) |
| --- | --- | --- | --- | --- | --- | --- | --- | --- | --- | --- | --- | --- | --- | --- | --- | --- | --- | --- | --- | --- |
| COc1ccc(-c2nc3ccccc3c(=S)n2OC(C)=O)cc1 | 1.5 µM (inactive) | 2.38 µM (inactive) | > 25 µM (inactive) | 2.55 µM (inactive) | 0.143 µM (active) | 1.64 µM (inactive) | 4.92 µM (inactive) | > 25 µM (inactive) | 1.95 µM (inactive) | 2.54 µM (inactive) | 8.32 µM (inactive) | 1.29 µM (inactive) | 2.25 µM (inactive) | > 25 µM (inactive) | 2.93 µM (inactive) | 8.07 µM (inactive) | 6.84 µM (inactive) | 4.63 µM (inactive) | 3.5 µM (inactive) | > 25 µM (inactive) |
| O=C(Cn1cc(F)c(=O)[nH]c1=O)C12CC3CC(CC(C3)C1)C2 | > 100 µM (inactive) | > 100 µM (inactive) | > 100 µM (inactive) | > 100 µM (inactive) | > 100 µM (inactive) | > 100 µM (inactive) | > 100 µM (inactive) | > 100 µM (inactive) | > 100 µM (inactive) | > 100 µM (inactive) | > 100 µM (inactive) | > 100 µM (inactive) | > 100 µM (inactive) | > 100 µM (inactive) | > 100 µM (inactive) | > 100 µM (inactive) | > 100 µM (inactive) | > 100 µM (inactive) | > 100 µM (inactive) | > 100 µM (inactive) |
| CO[C@H]1O[C@@H]2CO[C@@H](c3ccccc3)O[C@H]2[C@@H]2C/C=C\CCC[C@@]12O | 31 µM (inactive) | 17.2 µM (inactive) | 12.7 µM (inactive) | 17.9 µM (inactive) | 30 µM (inactive) | 22.5 µM (inactive) | 17.8 µM (inactive) | 29 µM (inactive) | 24 µM (inactive) | 26.9 µM (inactive) | 32.8 µM (inactive) | 25.3 µM (inactive) | 19.7 µM (inactive) | 16 µM (inactive) | 17.8 µM (inactive) | 17.7 µM (inactive) | 59.6 µM (inactive) | 26.9 µM (inactive) | 33.2 µM (inactive) | 34.8 µM (inactive) |
| C=C(Cl)C(Cl)(CBr)CCC(Cl)C(C)C (stereo not given) | 26.9 µM (inactive) | 4.79 µM (inactive) | 4.22 µM (inactive) | 0.222 µM (active) | 9.31 µM (inactive) | 1.23 µM (inactive) | 11.6 µM (inactive) | 3.95 µM (inactive) | 13.7 µM (inactive) | 8.55 µM (inactive) | 8.17 µM (inactive) | 1.68 µM (inactive) | 2.22 µM (inactive) | 0.619 µM (active) | 17.7 µM (inactive) | 13.2 µM (inactive) | 0.323 µM (active) | 2.47 µM (inactive) | 0.156 µM (active) | 1.33 µM (inactive) |
| CS(=O)(=O)OCCN(CCOS(C)(=O)=O)c1ccc(/C=N/c2ccc(-c3csc(COc4ccccc4)n3)cc2)cc1 | 0.587 µM (active) | 2.07 µM (inactive) | 2.26 µM (inactive) | 4.31 µM (inactive) | 12.6 µM (inactive) | 4.78 µM (inactive) | 4.27 µM (inactive) | 17 µM (inactive) | 2.21 µM (inactive) | 10.1 µM (inactive) | 14.8 µM (inactive) | 7.06 µM (inactive) | 0.807 µM (active) | 15.7 µM (inactive) | 10.7 µM (inactive) | 5.14 µM (inactive) | 1.9 µM (inactive) | 8.09 µM (inactive) | 1.32 µM (inactive) | 3.05 µM (inactive) |
